The values below come from BindingDB's records for doi:10.1016/j.bioorg.2015.07.005 (Birla Institute of Technology, 2015).

Molecules are shown by their SMILES. pIC50: −log10 of the molar value.

The term pIC50 denotes the negative decadic logarithm of the IC50, by convention in mol/L.

Sequence of Genome polyprotein (P14340 1346-1475 limits assumed): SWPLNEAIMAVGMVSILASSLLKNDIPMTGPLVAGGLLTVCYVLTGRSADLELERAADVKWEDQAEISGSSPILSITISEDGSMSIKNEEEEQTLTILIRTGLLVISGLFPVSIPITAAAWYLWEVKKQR
Sequence of Genome polyprotein (P14340 1476-2093 limits assumed): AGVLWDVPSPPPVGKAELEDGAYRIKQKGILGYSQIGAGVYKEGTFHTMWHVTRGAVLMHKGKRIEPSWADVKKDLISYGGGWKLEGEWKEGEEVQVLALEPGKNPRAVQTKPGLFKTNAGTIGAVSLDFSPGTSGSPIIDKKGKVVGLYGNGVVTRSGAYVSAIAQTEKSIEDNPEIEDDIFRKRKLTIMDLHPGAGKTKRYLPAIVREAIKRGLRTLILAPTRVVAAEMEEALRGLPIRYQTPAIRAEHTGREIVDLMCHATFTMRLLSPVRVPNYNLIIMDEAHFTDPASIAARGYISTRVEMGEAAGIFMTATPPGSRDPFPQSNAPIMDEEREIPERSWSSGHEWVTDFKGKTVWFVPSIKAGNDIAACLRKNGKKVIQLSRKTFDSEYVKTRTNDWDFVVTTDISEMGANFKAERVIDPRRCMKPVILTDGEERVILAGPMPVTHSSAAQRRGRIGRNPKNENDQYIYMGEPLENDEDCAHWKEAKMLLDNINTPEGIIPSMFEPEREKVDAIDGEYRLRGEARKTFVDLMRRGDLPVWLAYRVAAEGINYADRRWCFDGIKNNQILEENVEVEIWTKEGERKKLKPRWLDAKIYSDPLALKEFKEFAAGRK

The test addresses Genome polyprotein (Dengue virus type 2 (strain Thailand/NGS-C/1944), UniProt P14340). Briefly: DENV2 Protease Assay. As to conditions: pH 8.5. As to the method: To measure the inhibitory activities of the compounds, the DENV2 NS2B-NS3 protease activities were measured in the presence of the compounds using Bz-Nle-Lys-Arg-Arg-AMC as a substrate. The enzyme concentration in the assay was 125 nM, and the substrate concentration was 20 µM in 10 mM Tris-HCl pH 8.5, 20% glycerol, and 1 mM CHAPS. The inhibitor concentrations were 100 µM for the first round and between 3.125 and 400 µM for the compounds 16 and 19 in the second round. Before adding the substrate, the enzyme and the inhibitors were incubated at 37 °C for 15 min. All reactions were performed in 96-well plates with a final volume of 50 µL per each wells using the FLx800 fluorescence microplate reader (excitation = 380 nm; emission = 460 nm).
With `O=C(O)c1ccc(NS(=O)(=O)c2ccc(N3C(=O)c4ccccc4C3=O)cc2)cc1` [4-(4-(1,3-Dioxoisoindolin-2-yl)phenylsulphonamido)benzoic acid (18)], the pIC50 is less than 4.00.

For `O=C1c2ccccc2C(=O)N1c1ccc(S(=O)(=O)Nc2ccc(Cl)cc2)cc1` [N-(4-chlorophenyl)-4-(1,3-dioxoisoindolin-2-yl)benzenesulphonamide (12)], the pIC50 was less than 4.00.

The molecule `S=C(Nc1ccc(C(c2c[nH]c3ccccc23)c2c[nH]c3ccccc23)cc1)Nc1cccc(Br)c1` gave a negative logarithm of the IC50 (pIC50) of less than 4.00.

Consider `COc1ccc(NS(=O)(=O)c2ccc(N3C(=O)c4ccccc4C3=O)cc2)cc1` [4-(1,3-Dioxoisoindolin-2-yl)-N-(4-methoxyphenyl)benzenesulphonamide (10)], for which the pIC50 was less than 4.00.

In turn, `O=C1c2ccccc2C(=O)N1c1ccc(S(=O)(=O)Nc2cccc(Cl)c2)cc1` [N-(3-chlorophenyl)-4-(1,3-dioxoisoindolin-2-yl)benzenesulphonamide (11)] showed a pIC50 of less than 4.00.

In the case of `Cc1ccccc1NS(=O)(=O)c1ccc(N2C(=O)c3ccccc3C2=O)cc1` [4-(1,3-Dioxoisoindolin-2-yl)-N-o-tolylbenzenesulphonamide (13)], the pIC50 was less than 4.00.

Turning to `O=C1c2ccccc2C(=O)N1c1ccc(S(=O)(=O)Nc2ccccc2O)cc1` [4-(1,3-Dioxoisoindolin-2-yl)-N-(2-hydroxyphenyl)benzenesulphonamide (8)], the pIC50 was less than 4.00.

Molecule `O=C1c2ccccc2C(=O)N1c1ccc(S(=O)(=O)Nc2ccc([N+](=O)[O-])cc2)cc1` [4-(1,3-Dioxoisoindolin-2-yl)-N-(4-nitrophenyl)benzenesulphonamide (17)] gave a negative logarithm of the IC50 (pIC50) of less than 4.00.

For `Cc1cccc(NS(=O)(=O)c2ccc(N3C(=O)c4ccccc4C3=O)cc2)c1` [4-(1,3-Dioxoisoindolin-2-yl)-N-m-tolylbenzenesulphonamide (14)], the pIC50 was less than 4.00.

The molecule `O=C1c2ccccc2C(=O)N1c1ccc(S(=O)(=O)Nc2ccccc2)cc1` [4-(1,3-Dioxoisoindolin-2-yl)-N-phenylbenzenesulphonamide (7)] showed a pIC50 of less than 4.00.

The molecule `NS(=O)(=O)c1ccc(N2C(=O)c3ccccc3C2=O)cc1` [4-(1,3-Dioxoisoindolin-2-yl)benzenesulphonamide (1)] had a pIC50 of less than 4.00.

As to `O=C1c2ccccc2C(=O)N1c1ccc(S(=O)(=O)Nc2cccc3ccccc23)cc1` [4-(1,3-Dioxoisoindolin-2-yl)-N-(naphthalen-1-yl)benzenesulphonamide (19)], the negative logarithm of the IC50 (pIC50) is 3.91.

The molecule `O=C1c2ccccc2C(=O)N1c1ccc(S(=O)(=O)N2CCCCC2)cc1` [2-(4-(Piperidin-1-ylsulphonyl)phenyl)isoindoline-1,3-dione (5)] gave a pIC50 of less than 4.00.

The molecule `COc1cccc(NS(=O)(=O)c2ccc(N3C(=O)c4ccccc4C3=O)cc2)c1` [4-(1,3-Dioxoisoindolin-2-yl)-N-(3-methoxyphenyl)benzenesulphonamide (9)] gave a pIC50 of less than 4.00.

In turn, `CN1CCN(S(=O)(=O)c2ccc(N3C(=O)c4ccccc4C3=O)cc2)CC1` [2-(4-(4-Methylpiperazin-1-ylsulphonyl)phenyl)isoindoline-1,3-dione (6)] gave a negative-log IC50 (pIC50) of less than 4.00.

`CN(C)S(=O)(=O)c1ccc(N2C(=O)c3ccccc3C2=O)cc1` [4-(1,3-Dioxoisoindolin-2-yl)-N,N-dimethyl benzenesulphonamide (2)]: the pIC50 was less than 4.00.

In turn, `CCc1ccc(NS(=O)(=O)c2ccc(N3C(=O)c4ccccc4C3=O)cc2)cc1` [4-(1,3-Dioxoisoindolin-2-yl)-N-(4-ethylphenyl)benzenesulphonamide (16)] gave a pIC50 of 4.32.

Regarding `Cc1ccc(NS(=O)(=O)c2ccc(N3C(=O)c4ccccc4C3=O)cc2)cc1` [4-(1,3-Dioxoisoindolin-2-yl)-N-p-tolylbenzenesulphonamide (15)], the pIC50 is less than 4.00.

`O=C1c2ccccc2C(=O)N1c1ccc(S(=O)(=O)NCCc2ccccc2)cc1` [4-(1,3-Dioxoisoindolin-2-yl)-N-phenethylbenzenesulphonamide (20)] gave a pIC50 of less than 4.00.
